Laboratory results published in ChEMBL document CHEMBL5543059, “Discovery of anti-inflammatory natural flavonoids: Diverse scaffolds and promising leads for drug discovery” (Eur J Med Chem, 2023).
In brackets after ≈: the same amount, converted by molar mass.

Assays:
[1] = system: Peritoneal macrophage; experiment: Antiinflammatory activity in mouse peritoneal macrophages assessed as reduction in LPS-induced TNFalpha level at 20 uM incubated for 4 hrs by ELISA method relative to control; format: functional; set-up: scale not given: the % may be the effect or the level left
[2] = system: Neutrophil; experiment: Inhibition of fMLF/CB-induced human Neutrophil activation assessed as reduction in elastase release using MeO-Suc-Ala-Ala-Pro-Val-pnitroanilide as substrate incubated for 5 mins; format: functional, cell-based
[3] = system: RAW264.7; experiment: Antiinflammatory activity in LPS-activated mouse RAW264.7 cells assessed as inhibition of ROS production at 10 uM relative to control; format: functional; set-up: scale not given: the % may be the effect or the level left
[4] = system: BV-2; experiment: Antiinflammatory activity in LPS-induced mouse BV-2 cells assessed as reduction in COX-2 protein expression by Western blot analysis; format: functional, cell-based
[5] = system: BV-2; experiment: Anti-inflammatory activity against mouse BV-2 cells assessed as inhibition of LPS-induced IL-1beta secretion at 25 uM pretreated for 2 hrs followed stimulated with LPS for 22 hrs by ELISA analysis relative to control; format: functional; set-up: scale not given: the % may be the effect or the level left; conditions: time 24 hrs
[6] = system: RAW264.7; experiment: Antiinflammatory activity in mouse RAW264.7 cells assessed as reduction in LPS-induced iNOS expression after 24 hrs by Western blot analysis; format: functional, cell-based; conditions: RAW264.7, 24 h
[7] = system: RAW264.7; experiment: Antiinflammatory activity in mouse RAW264.7 cells assessed as reduction in LPS-induced COX-2 expression after 24 hrs by Western blot analysis; format: functional, cell-based; conditions: RAW264.7, 24 h
[8] = system: BV-2; experiment: Anti-inflammatory activity in mouse BV-2 cells assessed as reduction in LPS-induced NO production pre-treated with compounds for 2 hrs followed by LPS-stimulation measured for 22 hrs by Griess reagent based analysis; format: functional, cell-based
[9] = system: BV-2; experiment: Antiinflammatory activity in mouse BV-2 cells assessed as reduction in LPS-induced NO production incubated for 24 hrs by microplate reader analysis; format: functional, cell-based; conditions: BV-2, 24 h
[10] = system: J774.A1; experiment: Antiinflammatory activity in LPS-induced mouse J774.A1 cells assessed as reduction in TNFalpha production pretreated for 30 mins followed by LPS induction measured after 2 hrs by ELISA method; format: functional, cell-based
[11] = system: RAW264.7; experiment: Antiinflammatory activity in LPS-induced mouse RAW264.7 cells assessed as reduction in TNFalpha production pretreated for 30 mins followed by LPS induction measured after 2 hrs by ELISA method; format: functional, cell-based
[12] = system: Rattus norvegicus; experiment: Antiinflammatory activity in LPS-induced Sprague-Dawley rat assessed as reduction in TNFalpha production in plasma at 20 mg/kg, ip pretreated for 30 mins followed by LPS induction measured after 4 hrs by ELISA method relative to control; format: functional; set-up: scale not given: the % may be the effect or the level left; conditions: time 4.5 hrs
[13] = system: Rattus norvegicus; experiment: Antiinflammatory activity in LPS-induced Sprague-Dawley rat assessed as reduction in IL-1beta production in plasma at 20 mg/kg, ip pretreated for 30 mins followed by LPS induction measured after 4 hrs by ELISA method relative to control; format: functional; set-up: scale not given: the % may be the effect or the level left; conditions: time 4.5 hrs
[14] = system: J774.A1; experiment: Antiinflammatory activity in LPS-induced mouse J774.A1 cells assessed as reduction in IL-1beta production pretreated for 30 mins followed by LPS induction measured after 2 hrs by ELISA method; format: functional, cell-based
[15] = system: RAW264.7; experiment: Antiinflammatory activity in LPS-induced mouse RAW264.7 cells assessed as reduction in IL-1beta production pretreated for 30 mins followed by LPS induction measured after 2 hrs by ELISA method; format: functional, cell-based
[16] = system: THP-1; experiment: Antiinflammatory activity in human THP-1 cells assessed as decrease in LPS-induced TNFalpha expression by Western blot analysis; format: functional, cell-based
[17] = system: B16-F10; experiment: Antiinflammatory activity in mouse B16-F10 cells assessed as decrease in LPS-induced TNFalpha expression by Western blot analysis; format: functional, cell-based
[18] = system: RAW264.7; experiment: Anti-inflammatory activity against mouse RAW264.7 cells assessed as inhibition of LPS-induced IL-1beta mRNA expression level pretreated for 30 mins followed by LPS-induction and measured after 6 hrs by RT-PCR analysis; format: functional, cell-based
[19] = system: J774.A1; experiment: Anti-inflammatory activity against mouse J774.A1 cells assessed as inhibition of LPS-induced IL-1beta mRNA expression level pretreated for 30 mins followed by LPS-induction and measured after 6 hrs by RT-PCR analysis; format: functional, cell-based
[20] = system: RAW264.7; experiment: Anti-inflammatory activity in mouse RAW264.7 cells assessed as inhibition of LPS-induced IL-1beta production preincubated for 1 hr followed by LPS addition and measured after 24 hrs by ELISA; format: functional, cell-based
[21] = system: RAW264.7; experiment: Anti-inflammatory activity in mouse RAW264.7 cells assessed as inhibition of LPS-induced TNFalpha production preincubated for 1 hr followed by LPS addition and measured after 24 hrs by ELISA; format: functional, cell-based
[22] = system: RAW264.7; experiment: Anti-inflammatory activity in mouse RAW264.7 cells assessed as inhibition of LPS-induced IL-6 production preincubated for 1 hr followed by LPS addition and measured after 24 hrs by ELISA; format: functional, cell-based
[23] = system: Peritoneal macrophage; experiment: Antiinflammatory activity against LPS-stimulated mouse peritoneal macrophage assessed as TNF-alpha level; format: functional, cell-based
[24] = system: RAW264.7; experiment: Antiinflammatory activity in mouse RAW264.7 cells assessed as reduction in iNOS protein expression at 5 to 40 uM relative to control; format: functional; set-up: scale not given: the % may be the effect or the level left; conditions: dose 5-40 µM
[25] = system: RAW264.7; experiment: Anti-inflammatory activity in mouse RAW264.7 cells assessed as inhibition of LPS-induced NO production by Griess reagent assay; format: functional, cell-based
[26] = system: BV-2; experiment: Antiinflammatory activity in mouse BV-2 cells assessed as reduction in LPS-induced NO production pre-treated with compound for 1 hr followed by stimulated with LPS for 18 hrs by 2,3-diaminonaphthalene reagent based fluorescence analysis; format: functional, cell-based
[27] = system: RAW264.7; experiment: Anti-inflammatory activity in mouse RAW264.7 cells assessed as reduction in LPS-induced NO production by ELISA analysis; format: functional, cell-based
[28] = system: RAW264.7; experiment: Anti-inflammatory activity against LPS-stimulated mouse RAW264.7 cells assessed as inhibition of IL-6 expression at 100 uM by qRT-PCR analysis relative to control; format: functional; set-up: scale not given: the % may be the effect or the level left
[29] = system: BV-2; experiment: Anti-inflammatory activity against mouse BV-2 cells assessed as inhibition of LPS-induced COX-2 expression pretreated for 2 hrs followed stimulated with LPS for 22 hrs by ELISA analysis; format: functional, cell-based
[30] = system: BV-2; experiment: Anti-inflammatory activity against mouse BV-2 cells assessed as inhibition of LPS-induced PGE2 production at 50 uM pretreated for 2 hrs followed stimulated with LPS for 22 hrs by ELISA analysis relative to control; format: functional; set-up: scale not given: the % may be the effect or the level left; conditions: time 24 hrs
[31] = system: THP-1; experiment: Anti-inflammatory activity in human THP-1 cells assessed as inhibition of LPS-stimulated NO production by ELISA analysis; format: functional, cell-based
[32] = system: BV-2; experiment: Anti-inflammatory activity against mouse BV-2 cells assessed as inhibition of LPS-induced COX-2 expression at 50 uM pretreated for 2 hrs followed stimulated with LPS for 22 hrs by ELISA analysis relative to control; format: functional; set-up: scale not given: the % may be the effect or the level left; conditions: time 24 hrs
[33] = system: BV-2; experiment: Anti-inflammatory activity against mouse BV-2 cells assessed as inhibition of LPS-induced IL-6 pre-treated for 2 hrs followed stimulated with LPS for 22 hrs; format: functional, cell-based
[34] = system: BV-2; experiment: Anti-inflammatory activity against mouse BV-2 cells assessed as inhibition of LPS-induced PGE2 production pretreated for 2 hrs followed stimulated with LPS for 22 hrs by ELISA analysis; format: functional, cell-based
[35] = system: RAW264.7; experiment: Anti-inflammatory activity against LPS-stimulated mouse RAW264.7 cells assessed as inhibition of IL-6 expression at 10 uM by qRT-PCR analysis relative to control; format: functional; set-up: scale not given: the % may be the effect or the level left
[36] = system: BV-2; experiment: Anti-inflammatory activity in mouse BV-2 cells assessed as reduction in LPS-induced NO production; format: functional, cell-based
[37] = system: BV-2; experiment: Anti-inflammatory activity against mouse BV-2 cells assessed as inhibition of LPS-induced IL-1beta secretion pretreated for 2 hrs followed stimulated with LPS for 22 hrs by ELISA analysis; format: functional, cell-based
[38] = system: BV-2; experiment: Anti-inflammatory activity against mouse BV-2 cells assessed as inhibition of LPS-induced IL-1beta secretion at 50 uM pretreated for 2 hrs followed stimulated with LPS for 22 hrs by ELISA analysis relative to control; format: functional; set-up: scale not given: the % may be the effect or the level left; conditions: time 24 hrs
[39] = system: BV-2; experiment: Anti-inflammatory activity against mouse BV-2 cells assessed as inhibition of LPS-induced IL-6 at 50 uM pre-treated for 2 hrs followed stimulated with LPS for 22 hrs relative to control; format: functional; set-up: scale not given: the % may be the effect or the level left; conditions: time 24 hrs
[40] = system: HepG2; experiment: Anti-inflammatory activity against TNFalpha-induced human HepG2 cells assessed as inhibition of NF-kappaB activity pre-indubated for 1 hr followed by TNFalpha treatment measured for 5 hrs by luciferase based assay; format: functional, cell-based

Oc1cc(O)c2c(c1)O[C@H](c1cc(O)c(O)c(O)c1)CC2
Activity [1]: 22.6%

Cc1c(O)cc2c(c1O)C(=O)[C@H](O)[C@@H](c1ccc(O)cc1)O2
IC50 [2]: 6 µM

C=CC(C)(C)c1cc(/C=C/C(=O)c2ccc(O)cc2)c(OC)cc1O [LICOAGROCHACONE A]
Activity [3]: 80% | IC50 [4]: 0.625 mg/L (≈ 1.85 µM)

COc1ccc(-c2cc(=O)c3c(O)cc(OC)c(O)c3o2)cc1
Activity [5]: >50%

O=C1c2c(O)cc(O)cc2O[C@H](c2cc(O)c(O)c(O)c2)[C@H]1O [AMPELOPSIN]
IC50 [6]: 6.25 mg/L (≈ 19.5 µM) | IC50 [7]: 6.25 mg/L (≈ 19.5 µM)

O=C(/C=C/c1ccc(O)cc1)c1ccc(O)cc1O [ISOLIQUIRITIGENIN]
IC50 [8]: 5.22 µM | IC50 [9]: 6.78 µM

COc1cc(O)c(CC=C(C)C)c2oc(=O)cc(-c3ccccc3)c12
IC50 [10]: 20.4 µM | IC50 [11]: 21.3 µM | Activity [12]: 41.8% | Activity [13]: 55% | IC50 [14]: 38.2 µM | IC50 [15]: 29.2 µM

COc1cc(O)cc(O)c1C(=O)/C=C/c1ccccc1 [CARDAMOMIN]
IC50 [16]: 1.1 µM | IC50 [17]: 0.6 µM

COc1cc(O)c(C(=O)/C=C/c2ccccc2)c(O)c1
IC50 [18]: 43.1 µM | IC50 [19]: 42.8 µM

O=c1c(O)c(-c2cc(O)c(O)c(O)c2)oc2cc(O)cc(O)c12 [MYRICETIN]
IC50 [20]: 19.2 µM | IC50 [21]: 23.9 µM | IC50 [22]: 19.7 µM

O=c1c(-c2ccc(O)cc2)coc2cc(O)cc(O)c12 [GENISTEIN]
IC50 [23]: 16.9 µM

CC(C)=CCc1c([C@H]2Oc3cc(O)cc(O)c3C(=O)[C@@H]2O)cc2c(c1O)OC(C)(C)C=C2
Activity [24]: 42.8%

CC(C)=CCC[C@@]1(C)C=Cc2c(ccc(C(=O)/C=C/c3ccc(O)c(O)c3)c2O)O1
IC50 [25]: 22.7 µM

O=C1/C(=C/c2ccc(O)c(O)c2)Oc2cc(O)ccc21 [SULFURETIN]
IC50 [26]: 31.4 µM

O=c1c(O)c(-c2ccc(O)cc2)oc2cc(O)cc(O)c12 [KAEMPFEROL]
IC50 [27]: 14.1 µM | Activity [28]: 64.5% | IC50 [29]: 60.1 µM | Activity [30]: 65.2% | IC50 [31]: 15.9 µM | Activity [32]: 51.4% | IC50 [33]: 80.8 µM | IC50 [34]: 52.4 µM | Activity [35]: 80.7% | IC50 [36]: 10.6 µM | IC50 [37]: 80.8 µM | Activity [38]: 53.2% | Activity [39]: 28.1% | IC50 [40]: 20.5 µM
